test system: 4 PI3K isoforms (Human recombinant GST-PI3K); assay: PI3K scintillation proximity assay, best IC50 obtained with the four isoforms (alpha, beta, delta, gamma); format: biochemical; details: best IC50 obtained with the four isoforms of PI3K; read-out: Best potency measured on the 4 PI3K isoforms

SMILES	IC50 [µM]
O=C(c1nn(-c2ccccc2)c2c1CS(=O)(=O)c1ccc([N+](=O)[O-])cc1-2)N1CCOCC1 [Example 36, 3-(morpholin-4-ylcarbonyl)-8-nitro-1-phenyl-1,4-dihydrothiochromeno[4,3-c]pyrazole 5,5-dioxide]	1.83
O=C(c1nn(C2CCOCC2)c2c1CS(=O)(=O)c1sccc1-2)N1CCOCC1 [Example 246, 3-(Morpholin-4-ylcarbonyl)-1-(tetrahydro-2H-pyran-4-yl)-1,4-dihydrothieno[3′,2′:5,6]thiopyrano[4,3-c]pyrazole 5,5-dioxide]	0.824
O=C(c1nn(CC2CCCCC2)c2c1CS(=O)(=O)c1ccccc1-2)N1CCOCC1 [Example 51, 1-(cyclohexylmethyl)-3-(morpholin-4-ylcarbonyl)-1,4-dihydrothiochromeno[4,3-c]pyrazole 5,5-dioxide]	0.509
O=C(c1ccc2c(c1)-c1c(c(C(=O)N3CCOCC3)nn1-c1ccccc1)CS2(=O)=O)N1CCCCC1 [Example 117, 3-(Morpholin-4-ylcarbonyl)-1-phenyl-8-(piperidin-1-ylcarbonyl)-1,4-dihydrothiochromeno[4,3-c]pyrazole 5,5-dioxide]	3.41
CC1CCC(n2nc(C(=O)N3CCOCC3)c3c2-c2ccccc2S(=O)(=O)C3)CC1 (stereo not drawn) [Example 127, 1-(4-Methylcyclohexyl)-3-(morpholin-4-ylcarbonyl)-1,4-dihydrothiochromeno[4,3-c]pyrazole 5,5-dioxide]	0.426
O=C(c1nn(-c2ccc(CN3CCC(F)CC3)nc2)c2c1CS(=O)(=O)c1ccccc1-2)N1CCOCC1 [Example 217, 1-{6-[(4-Fluoropiperidin-1-yl)methyl]pyridin-3-yl}-3-(morpholin-4-ylcarbonyl)-1,4-dihydrothiochromeno[4,3-c]pyrazole 5,5-dioxide]	1.2
Cc1cccc2c1S(=O)(=O)Cc1c(C(=O)N3CCOCC3)nn(-c3ccccc3)c1-2 [Example 202, 6-Methyl-3-(morpholin-4-ylcarbonyl)-1-phenyl-1,4-dihydrothiochromeno[4,3-c]pyrazole 5,5-dioxide]	1.74
CN(C)c1cccc(-n2nc(C(=O)N3CCOCC3)c3c2-c2ccccc2S(=O)(=O)C3)c1 [Example 177, N,N-Dimethyl-3-[3-(morpholin-4-ylcarbonyl)-5,5-dioxidothiochromeno[4,3-c]pyrazol-1 (4H)-yl]aniline]	4.72
COCCN1CCC(n2nc(C(=O)N3CCOCC3)c3c2-c2ccccc2S(=O)(=O)C3)CC1 [Example 101, 1-[1-(2-Methoxyethyl)piperidin-4-yl]-3-(morpholin-4-ylcarbonyl)-1,4-dihydrothiochromeno[4,3-c]pyrazole 5,5-dioxide]	1.92
O=C(c1ccc(-n2nc(C(=O)N3CCOCC3)c3c2-c2ccccc2S(=O)(=O)C3)cc1)N1CCOCC1 [Example 147, 3-(Morpholin-4-ylcarbonyl)-1-[4-(morpholin-4-ylcarbonyl)phenyl]-1,4-dihydrothiochromeno[4,3-c]pyrazole 5,5-dioxide]	0.274
Cn1nc(C(=O)N2CCOCC2)c2c1-c1cc(Br)ccc1S(=O)(=O)C2 [Example 63]	1.04
O=C(c1cccc(-n2nc(C(=O)N3CCOCC3)c3c2-c2ccccc2S(=O)(=O)C3)c1)N1CCCCC1 [Example 125, 3-(Morpholin-4-ylcarbonyl)-1-[3-(piperidin-1-ylcarbonyl)phenyl]-1,4-dihydrothiochromeno[4,3-c]pyrazole 5,5-dioxide]	0.182
O=C(c1nn(Cc2ccccc2)c2c1CS(=O)(=O)c1ccccc1-2)N1CCOCC1 [Example 40, 1-benzyl-3-(morpholin-4-ylcarbonyl)-1,4-dihydrothiochromeno[4,3-c]pyrazole 5,5-dioxide]	1.19
COCCN1CCCC(n2nc(C(=O)N3CCOCC3)c3c2-c2ccccc2S(=O)(=O)C3)C1 (stereo not drawn) [Example 133, 1-[1-(2-Methoxyethyl)piperidin-3-yl]-3-(morpholin-4-ylcarbonyl)-1,4-dihydrothiochromeno[4,3-c]pyrazole 5,5-dioxide]	0.188
O=C(c1nn(-c2ccccc2)c2c1CS(=O)(=O)c1cc(Br)ccc1-2)N1CCOCC1 [Example 122]	0.904

The next lines start with the values.

IC50 [µM]	SMILES
0.02	COC1CN(CCN2CCC[C@H](n3nc(C(=O)N4CCOCC4)c4c3-c3ccccc3S(=O)(=O)C4)C2)C1 (stereo in doubt) [Example 446, 1-{1-[2-(3-methoxyazetidin-1-yl)ethyl]piperidin-3-yl}-3-(morpholin-4-ylcarbonyl)-1,4-dihydrothiochromeno[4,3-c]pyrazole 5,5-dioxide]
0.09	O=C(c1nn(C2CCCN(CCCn3cccc3)C2)c2c1CS(=O)(=O)c1ccccc1-2)N1CCOCC1 (stereo not drawn) [Example 296, 3-(Morpholin-4-ylcarbonyl)-1-{1-[3-(1H-pyrrol-1-yl)propyl]piperidin-3-yl}-1,4-dihydrothiochromeno[4,3-c]pyrazole 5,5-dioxide]
0.048	COC(=O)CCN1CCC[C@H](n2nc(C(=O)N3CCOCC3)c3c2-c2ccccc2S(=O)(=O)C3)C1 (single isomer, unassigned) [Example 433, methyl 3-{3-[3-(morpholin-4-ylcarbonyl)-5,5-dioxidothiochromeno[4,3-c]pyrazol-1(4H)-yl]piperidin-1-yl}propanoate]
0.085	O=C(c1nn([C@H]2CCCN(Cc3cccnc3)C2)c2c1CS(=O)(=O)c1ccccc1-2)N1CCOCC1 (stereo in doubt) [Example 466, 3-(morpholin-4-ylcarbonyl)-1-[1-(pyridin-3-ylmethyl)piperidin-3-yl]-1,4-dihydrothiochromeno[4,3-c]pyrazole 5,5-dioxide]
0.133	O=C(c1nn([C@H]2CCCN(c3ccncc3)C2)c2c1CS(=O)(=O)c1ccccc1-2)N1CCOCC1 (stereo in doubt) [Example 468, 3-(morpholin-4-ylcarbonyl)-1-[1-pyridin-4-ylpiperidin-3-yl]-1,4-dihydrothiochromeno[4,3-c]pyrazole 5,5-dioxide]
0.149	O=C(c1nn(C2CCN(CCN3CCC(F)CC3)C2)c2c1CS(=O)(=O)c1ccccc1-2)N1CCOCC1 (stereo not drawn) [Example 277, 1-{1-[2-(4-Fluoropiperidin-1-yl)ethyl]pyrrolidin-3-yl}-3-(morpholin-4-ylcarbonyl)-1,4-dihydrothiochromeno[4,3-c]pyrazole 5,5-dioxide]
0.045	O=C(c1nn([C@H]2CCCN(Cc3ccncc3)C2)c2c1CS(=O)(=O)c1ccccc1-2)N1CCOCC1 (stereo in doubt) [Example 473, 3-(morpholin-4-ylcarbonyl)-1-[1-(pyridin-4-ylmethyl)piperidin-3-yl]-1,4-dihydrothiochromeno[4,3-c]pyrazole 5,5-dioxide]
0.733	O=C(CC1CCOCC1)N1CCC(n2nc(C(=O)N3CCOCC3)c3c2-c2ccccc2S(=O)(=O)C3)C1 (stereo not drawn) [Example 287, 3-(Morpholin-4-ylcarbonyl)-1-[1-(tetrahydro-2H-pyran-4-ylacetyl)pyrrolidin-3-yl]-1,4-dihydrothiochromeno[4,3-c]pyrazole 5,5-dioxide]
0.059	COC1CCN(Cc2ccc(-n3nc(C(=O)N4CCOCC4)c4c3-c3ccccc3S(=O)(=O)C4)cc2)C1 (stereo not drawn) [Example 267, 1-{4-[(3-Methoxypyrrolidin-1-yl)methyl]phenyl}-3-(morpholin-4-ylcarbonyl)-1,4-dihydrothiochromeno[4,3-c]pyrazole 5,5-dioxide]
0.179	O=C(c1nn(-c2cccc(OCCn3ccnc3)c2)c2c1CS(=O)(=O)c1ccccc1-2)N1CCOCC1 [Example 360, 1-{3-[2-(1H-Imidazol-1-yl)ethoxy]phenyl}-3-(morpholin-4-ylcarbonyl)-1,4-dihydrothiochromeno[4,3-c]pyrazole 5,5-dioxide]
0.997	COCc1cccc(-n2nc(C(=O)N3CCOCC3)c3c2-c2ccccc2S(=O)(=O)C3)c1 [Example 248, 1-[3-(Methoxylmethyl)phenyl]-3-(morpholin-4-ylcarbonyl)-1,4-dihydrothiochromeno[4,3-c]pyrazole 5,5-dioxide]
0.095	O=C(c1nn(C2CN(CCC3CCOCC3)C2)c2c1CS(=O)(=O)c1ccccc1-2)N1CCOCC1 [Example 405, 3-(Morpholin-4-ylcarbonyl)-1-{1-[2-(tetrahydro-2H-pyran-4-yl)ethyl]azetidin-3-yl}-1,4-dihydrothiochromeno[4,3-c]pyrazole 5,5-dioxide]
0.156	O=C(c1nn(-c2ccc(CNC3CCOC3)cc2)c2c1CS(=O)(=O)c1ccccc1-2)N1CCOCC1 (stereo not drawn) [Example 456, N-{4-[3-(Morpholin-4-ylcarbonyl)-5,5-dioxidothiochromeno[4,3-c]pyrazol-1(4H)-yl]benzyl}tetrahydrofuran-3-amine]
0.711	O=C(CC1CCCCC1)N1CCC(n2nc(C(=O)N3CCOCC3)c3c2-c2ccccc2S(=O)(=O)C3)C1 (stereo not drawn) [Example 279, 1-[1-(Cyclohexylacetyl)pyrrolidin-3-yl]-3-(morpholin-4-ylcarbonyl)-1,4-dihydrothiochromeno[4,3-c]pyrazole 5,5-dioxide]
0.031	COCCN1CCC[C@H](n2nc(C(=O)N3CCOCC3)c3c2-c2cccc(F)c2S(=O)(=O)C3)C1 (single isomer, unassigned) [Example 434, 6-Fluoro-1-[1-(2-methoxyethyl)piperidin-3-yl]-3-(morpholin-4-ylcarbonyl)-1,4-dihydrothiochromeno[4,3-c]pyrazole 5,5-dioxide]
0.018	O=C(c1nn([C@H]2CCCN(CCN3CCC(O)CC3)C2)c2c1CS(=O)(=O)c1ccccc1-2)N1CCOCC1 (stereo in doubt) [Example 463, 1-(2-{3-[3-(morpholin-4-ylcarbonyl)-5,5-dioxidothiochromeno[4,3-c]pyrazol-1(4H)-yl]piperidin-1-yl}ethyl)piperidin-4-ol]
0.022	O=C(c1nn([C@H]2CCCN(CCN3CC(F)(F)C3)C2)c2c1CS(=O)(=O)c1c(F)cccc1-2)N1CCOCC1 (stereo in doubt) [Example 464, 1-{1-[2-(3,3-difluoroazetidin-1-yl)ethyl]piperidin-3-yl}-6-fluoro-3-(morpholin-4-ylcarbonyl)-1,4-dihydrothiochromeno[4,3-c]pyrazole 5,5-dioxide]

same assay, conditions: inhibition at 20 μM

SMILES	Best potency measured on the 4 PI3K isoforms, % inh @20 μM [% inh @20 μM]
O=C(c1nn(-c2ccccc2)c2c1CS(=O)(=O)c1ccccc1-2)N1CCOc2ccccc21 [Example 335]	13

From patent US9073940B2, “Tricyclic pyrazol amine derivatives” (MERCK SERONO SA, priority 2009, dated 2015)
